Results taken from ChEMBL document CHEMBL5316327, “Design and Synthesis of Orally Active Quinolyl Pyrazinamides as Sigma 2 Receptor Ligands for the Treatment of Pancreatic Cancer” (J Med Chem, 2023).
Calls of active or inactive are those of the source. The rule behind the calls is not given here.

Key:
BXPC-3 = test: cells; conditions: Homo sapiens, BXPC-3, 72 h
HCT-116 = test: Inhibition of colony formation in human HCT-116 cells at 0.04 to 30 uM pretreated with ammonium tetrathiomolybdate for 4 hrs followed by compound addition and measured after 6 days; format: functional, cell-based; conditions: dose 0.04-30 µM, time 6.0 day
[1] = Cytotoxicity against HEK293 cells measured after 72 hrs by MTT assay; format: toxicity, cell-based; conditions: human
MIA PaCa-2 [2] = test: Antagonistic cytotoxicity against human MIA PaCa-2 cells at 0.001 to 0.1 uM measured after 7 days in presence of ammonium tetrathiomolybdate by crystal violet staining based analysis; format: functional, cell-based; conditions: dose 0.001-0.1 µM, time 7.0 day
[3] = Cytotoxicity against HPDE cells measured after 72 hrs by MTT assay; format: toxicity, cell-based; conditions: human
cells = conditions: Mus musculus, KPC2, 72 h
MIA PaCa-2 [4] = test: Synergistic cytotoxicity against human MIA PaCa-2 cells at 0.001 to 0.1 uM measured after 7 days in presence of copper chloride by crystal violet staining based analysis; format: functional, cell-based; conditions: dose 0.001-0.1 µM, time 7.0 day
MIA PaCa-2 [5] = test: Inhibition of colony formation in human MIA PaCa-2 cells at 0.04 to 30 uM pretreated with ammonium tetrathiomolybdate for 4 hrs followed by compound addition and measured after 6 days; format: functional, cell-based; conditions: dose 0.04-30 µM, time 6.0 day
PANC-1 = test: cells; conditions: Homo sapiens, PANC-1, 72 h
Panc02 = test: cells; conditions: Mus musculus, Panc02, 72 h
[6] = Cytotoxicity against HFF-1 cells measured after 72 hrs by MTT assay; format: toxicity, cell-based; conditions: human
D(3) dopamine receptor = D(3) dopamine receptor (Homo sapiens, UniProt P35462); test: Binding affinity to dopamine D3 receptor (unknown origin) assessed as inhibition constant
[7] = molecular target: Alpha-2B adrenergic receptor (Homo sapiens, UniProt P18089); test: Binding affinity to alpha2B receptor (unknown origin) assessed as inhibition constant
[8] = molecular target: 5-hydroxytryptamine receptor 1A (Homo sapiens, UniProt P08908); test: Binding affinity to 5-HT1A receptor (unknown origin) assessed as inhibition constant
Histamine H3 receptor = Histamine H3 receptor (Homo sapiens, UniProt Q9Y5N1); test: Binding affinity to histamine H3 receptor (unknown origin) assessed as inhibition constant
D(1B) dopamine receptor = D(1B) dopamine receptor (Homo sapiens, UniProt P21918); test: Binding affinity to dopamine D5 receptor (unknown origin) assessed as inhibition constant
[9] = molecular target: Alpha-2A adrenergic receptor (Homo sapiens, UniProt P08913); test: Binding affinity to alpha2A receptor (unknown origin) assessed as inhibition constant
[10] = molecular target: Muscarinic acetylcholine receptor M5 (Homo sapiens, UniProt P08912); test: Binding affinity to M5 receptor (unknown origin) assessed as inhibition constant
[11] = molecular target: 5-hydroxytryptamine receptor 2B (Homo sapiens, UniProt P41595); test: Binding affinity to 5-HT2B receptor (unknown origin) assessed as inhibition constant
[12] = molecular target: Muscarinic acetylcholine receptor M2 (Homo sapiens, UniProt P08172); test: Binding affinity to M2 receptor (unknown origin) assessed as inhibition constant
[13] = molecular target: Sigma non-opioid intracellular receptor 1 (Homo sapiens, UniProt Q99720); test: Displacement of [3H](+)-pentazocine from human sigma 1 receptor transfected in human HEK293T cells assessed as inhibition constant by radioligand competition binding assay; format: cell-based
[14] = Metabolic stability in human liver microsomes assessed as half life at 10 uM measured upto 60 mins in presence of NADPH by LC-MS/MS analysis; format: ADME, Microsome; conditions: liver microsomes
Histamine H2 receptor = Histamine H2 receptor (Homo sapiens, UniProt P25021); test: Binding affinity to histamine H2 receptor (unknown origin) assessed as inhibition constant
[15] = molecular target: 5-hydroxytryptamine receptor 1D (Homo sapiens, UniProt P28221); test: Binding affinity to 5-HT1D receptor (unknown origin) assessed as inhibition constant
[16] = Metabolic stability in mouse liver microsomes assessed as half life at 10 uM measured upto 60 mins in presence of NADPH by LC-MS/MS analysis; format: ADME, Microsome; conditions: 1 h
[17] = molecular target: Sigma intracellular receptor 2 (Homo sapiens, UniProt Q5BJF2); test: Displacement of [3H][…]ditolylguanidine from human sigma 2 receptor transfected in human HEK293T cells assessed as inhibition constant by radioligand competition binding assay; format: cell-based
[18] = molecular target: Muscarinic acetylcholine receptor M4 (Homo sapiens, UniProt P08173); test: Binding affinity to M4 receptor (unknown origin) assessed as inhibition constant
[19] = molecular target: Muscarinic acetylcholine receptor M3 (Homo sapiens, UniProt P20309); test: Binding affinity to M3 receptor (unknown origin) assessed as inhibition constant
[20] = molecular target: Kappa-type opioid receptor (Homo sapiens, UniProt P41145); test: Binding affinity to KOR receptor (unknown origin) assessed as inhibition constant
D(1A) dopamine receptor = D(1A) dopamine receptor (Homo sapiens, UniProt P21728); test: Binding affinity to dopamine D1 receptor (unknown origin) assessed as inhibition constant
[21] = molecular target: Muscarinic acetylcholine receptor M1 (Homo sapiens, UniProt P11229); test: Binding affinity to M1 receptor (unknown origin) assessed as inhibition constant

Chain of 5-hydroxytryptamine receptor 2B (P41595 whole entry): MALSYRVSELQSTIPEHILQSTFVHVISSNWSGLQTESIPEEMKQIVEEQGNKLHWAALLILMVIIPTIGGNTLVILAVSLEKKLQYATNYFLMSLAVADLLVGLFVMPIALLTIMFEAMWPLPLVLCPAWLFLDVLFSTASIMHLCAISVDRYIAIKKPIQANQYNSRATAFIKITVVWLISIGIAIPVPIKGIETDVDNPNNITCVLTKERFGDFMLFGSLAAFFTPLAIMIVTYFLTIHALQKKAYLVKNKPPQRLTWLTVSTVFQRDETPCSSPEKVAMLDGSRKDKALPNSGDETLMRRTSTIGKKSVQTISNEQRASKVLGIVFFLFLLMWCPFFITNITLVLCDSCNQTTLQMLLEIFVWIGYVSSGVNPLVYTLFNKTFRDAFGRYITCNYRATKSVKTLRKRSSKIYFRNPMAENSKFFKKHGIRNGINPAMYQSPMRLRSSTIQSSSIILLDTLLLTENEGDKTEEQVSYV
Chain of D(1B) dopamine receptor (P21918 whole entry): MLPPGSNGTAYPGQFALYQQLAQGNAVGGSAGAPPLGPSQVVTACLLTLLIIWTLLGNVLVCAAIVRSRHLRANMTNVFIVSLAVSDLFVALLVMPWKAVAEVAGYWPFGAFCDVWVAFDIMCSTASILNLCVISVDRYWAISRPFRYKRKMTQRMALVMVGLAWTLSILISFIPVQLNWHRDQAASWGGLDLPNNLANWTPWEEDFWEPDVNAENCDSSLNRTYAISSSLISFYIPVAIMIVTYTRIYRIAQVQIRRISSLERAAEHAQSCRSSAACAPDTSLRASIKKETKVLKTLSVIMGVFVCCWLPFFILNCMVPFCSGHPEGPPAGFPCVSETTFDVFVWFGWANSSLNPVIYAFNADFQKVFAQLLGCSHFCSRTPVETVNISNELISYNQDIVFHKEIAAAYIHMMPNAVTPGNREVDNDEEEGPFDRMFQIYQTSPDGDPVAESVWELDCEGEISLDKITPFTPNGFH
Chain of Alpha-2A adrenergic receptor (P08913 whole entry): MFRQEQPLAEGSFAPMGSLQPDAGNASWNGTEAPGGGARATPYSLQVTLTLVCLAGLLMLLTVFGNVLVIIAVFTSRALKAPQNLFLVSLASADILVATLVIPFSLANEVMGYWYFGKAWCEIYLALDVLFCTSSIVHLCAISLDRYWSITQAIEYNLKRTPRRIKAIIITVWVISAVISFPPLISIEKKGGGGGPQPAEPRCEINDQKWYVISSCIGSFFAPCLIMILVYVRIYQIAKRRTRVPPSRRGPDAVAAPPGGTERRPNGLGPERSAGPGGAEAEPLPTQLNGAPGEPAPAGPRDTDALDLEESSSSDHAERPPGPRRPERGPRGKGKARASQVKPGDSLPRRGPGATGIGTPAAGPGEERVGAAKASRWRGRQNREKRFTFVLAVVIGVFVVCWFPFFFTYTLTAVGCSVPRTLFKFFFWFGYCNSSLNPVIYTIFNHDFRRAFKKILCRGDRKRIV
Chain of Muscarinic acetylcholine receptor M5 (P08912 whole entry): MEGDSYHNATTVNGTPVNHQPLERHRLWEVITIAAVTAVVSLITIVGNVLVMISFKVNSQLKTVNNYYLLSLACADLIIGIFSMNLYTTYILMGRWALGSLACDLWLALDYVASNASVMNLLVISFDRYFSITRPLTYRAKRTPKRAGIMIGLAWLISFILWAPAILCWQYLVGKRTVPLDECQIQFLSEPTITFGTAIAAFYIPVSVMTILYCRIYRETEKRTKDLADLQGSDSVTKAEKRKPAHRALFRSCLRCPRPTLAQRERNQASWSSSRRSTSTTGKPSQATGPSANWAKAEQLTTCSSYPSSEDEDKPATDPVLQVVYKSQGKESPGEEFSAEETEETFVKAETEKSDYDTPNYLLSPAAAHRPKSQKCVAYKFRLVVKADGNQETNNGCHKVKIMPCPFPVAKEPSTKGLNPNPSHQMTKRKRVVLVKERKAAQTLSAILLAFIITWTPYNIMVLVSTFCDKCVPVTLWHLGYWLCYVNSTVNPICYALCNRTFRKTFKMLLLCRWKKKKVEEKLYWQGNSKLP
Chain of Muscarinic acetylcholine receptor M4 (P08173 whole entry): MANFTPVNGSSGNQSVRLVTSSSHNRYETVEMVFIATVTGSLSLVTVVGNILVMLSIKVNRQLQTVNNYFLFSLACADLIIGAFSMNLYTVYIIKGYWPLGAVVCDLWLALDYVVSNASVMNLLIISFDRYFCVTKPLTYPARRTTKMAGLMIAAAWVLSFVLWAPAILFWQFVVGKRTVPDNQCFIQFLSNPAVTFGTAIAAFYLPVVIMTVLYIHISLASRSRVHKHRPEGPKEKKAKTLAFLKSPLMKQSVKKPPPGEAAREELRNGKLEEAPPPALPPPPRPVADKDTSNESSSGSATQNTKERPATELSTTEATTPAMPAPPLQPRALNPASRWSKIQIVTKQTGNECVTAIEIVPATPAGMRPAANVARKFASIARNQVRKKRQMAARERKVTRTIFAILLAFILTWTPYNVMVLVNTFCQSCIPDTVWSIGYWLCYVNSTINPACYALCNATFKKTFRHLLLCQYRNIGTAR
Chain of Sigma non-opioid intracellular receptor 1 (Q99720 whole entry): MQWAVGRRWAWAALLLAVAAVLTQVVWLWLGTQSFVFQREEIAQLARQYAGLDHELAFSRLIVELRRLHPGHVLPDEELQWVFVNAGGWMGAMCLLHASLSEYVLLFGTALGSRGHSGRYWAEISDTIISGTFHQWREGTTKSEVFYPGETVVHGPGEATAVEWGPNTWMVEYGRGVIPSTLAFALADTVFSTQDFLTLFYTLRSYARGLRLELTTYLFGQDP
Chain of Histamine H3 receptor (Q9Y5N1 whole entry): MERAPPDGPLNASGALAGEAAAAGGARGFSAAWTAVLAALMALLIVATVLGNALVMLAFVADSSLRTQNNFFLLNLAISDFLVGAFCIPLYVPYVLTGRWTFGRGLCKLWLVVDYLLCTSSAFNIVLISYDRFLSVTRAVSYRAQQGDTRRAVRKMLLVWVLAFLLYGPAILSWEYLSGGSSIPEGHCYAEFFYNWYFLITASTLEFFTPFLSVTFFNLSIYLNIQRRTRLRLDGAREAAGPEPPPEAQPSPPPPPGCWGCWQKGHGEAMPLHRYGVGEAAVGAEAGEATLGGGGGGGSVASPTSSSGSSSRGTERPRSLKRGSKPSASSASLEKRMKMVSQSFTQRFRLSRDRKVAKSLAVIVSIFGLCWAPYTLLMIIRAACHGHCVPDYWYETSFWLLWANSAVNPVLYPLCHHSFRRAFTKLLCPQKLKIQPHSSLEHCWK
Chain of D(3) dopamine receptor (P35462 whole entry): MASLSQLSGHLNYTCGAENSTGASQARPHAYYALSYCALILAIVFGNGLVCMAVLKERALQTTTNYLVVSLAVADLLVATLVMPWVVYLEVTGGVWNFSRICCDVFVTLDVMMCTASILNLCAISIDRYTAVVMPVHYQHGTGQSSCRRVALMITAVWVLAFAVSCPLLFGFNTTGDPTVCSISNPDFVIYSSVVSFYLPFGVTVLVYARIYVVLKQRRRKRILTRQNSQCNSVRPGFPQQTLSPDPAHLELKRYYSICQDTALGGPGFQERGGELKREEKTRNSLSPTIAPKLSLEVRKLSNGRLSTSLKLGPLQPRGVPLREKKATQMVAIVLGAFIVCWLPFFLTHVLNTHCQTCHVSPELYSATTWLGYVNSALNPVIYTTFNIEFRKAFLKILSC
Chain of Sigma intracellular receptor 2 (Q5BJF2 whole entry): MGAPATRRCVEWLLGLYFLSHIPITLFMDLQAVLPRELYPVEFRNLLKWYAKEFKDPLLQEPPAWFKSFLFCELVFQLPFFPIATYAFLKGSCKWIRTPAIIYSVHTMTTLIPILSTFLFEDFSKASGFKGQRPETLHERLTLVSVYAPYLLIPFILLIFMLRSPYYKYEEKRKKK
Chain of Alpha-2B adrenergic receptor (P18089 whole entry): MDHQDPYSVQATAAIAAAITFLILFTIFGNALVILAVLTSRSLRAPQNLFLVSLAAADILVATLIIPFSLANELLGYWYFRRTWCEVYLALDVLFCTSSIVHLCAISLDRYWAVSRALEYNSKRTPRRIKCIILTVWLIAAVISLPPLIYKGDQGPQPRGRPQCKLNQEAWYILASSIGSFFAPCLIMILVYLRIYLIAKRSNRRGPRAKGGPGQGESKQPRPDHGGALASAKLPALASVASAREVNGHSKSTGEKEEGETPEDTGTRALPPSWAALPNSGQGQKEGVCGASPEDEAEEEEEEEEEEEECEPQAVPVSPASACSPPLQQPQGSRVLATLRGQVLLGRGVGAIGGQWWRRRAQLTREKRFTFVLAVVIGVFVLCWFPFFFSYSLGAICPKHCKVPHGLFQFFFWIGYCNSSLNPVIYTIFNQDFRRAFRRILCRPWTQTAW
Chain of 5-hydroxytryptamine receptor 1D (P28221 whole entry): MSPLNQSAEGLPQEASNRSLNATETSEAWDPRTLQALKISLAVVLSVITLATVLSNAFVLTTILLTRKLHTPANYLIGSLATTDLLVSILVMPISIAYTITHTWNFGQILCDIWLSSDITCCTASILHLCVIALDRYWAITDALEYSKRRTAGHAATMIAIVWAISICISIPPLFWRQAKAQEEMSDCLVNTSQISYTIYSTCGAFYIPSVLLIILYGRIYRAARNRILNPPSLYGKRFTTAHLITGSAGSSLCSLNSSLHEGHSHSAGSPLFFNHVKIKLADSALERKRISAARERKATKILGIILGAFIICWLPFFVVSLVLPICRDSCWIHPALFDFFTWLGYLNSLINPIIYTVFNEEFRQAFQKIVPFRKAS
Chain of Kappa-type opioid receptor (P41145 whole entry): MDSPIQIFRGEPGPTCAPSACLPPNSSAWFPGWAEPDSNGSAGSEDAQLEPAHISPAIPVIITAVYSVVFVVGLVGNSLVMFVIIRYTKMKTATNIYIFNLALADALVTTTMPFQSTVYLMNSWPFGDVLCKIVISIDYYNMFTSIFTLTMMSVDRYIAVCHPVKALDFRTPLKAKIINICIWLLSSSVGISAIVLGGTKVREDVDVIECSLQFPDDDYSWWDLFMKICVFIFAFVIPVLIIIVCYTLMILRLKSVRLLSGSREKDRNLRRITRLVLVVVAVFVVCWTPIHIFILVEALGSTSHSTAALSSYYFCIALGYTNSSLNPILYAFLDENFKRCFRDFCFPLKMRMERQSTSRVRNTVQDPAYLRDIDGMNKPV

For `O=C(Nc1cccc2cccnc12)c1cnccn1`, the IC50 (BXPC-3) was 1800 nM, the inhibition (HCT-116) was “inactive” and the IC50 at 72 h [1] was 200 nM. For the same molecule, the Activity (MIA PaCa-2 [2]) was “Active”, the IC50 at 72 h [3] was 600 nM and the IC50 (cells) was 200 nM. The Activity (MIA PaCa-2 [4]) was “Active”, the inhibition (MIA PaCa-2 [5]) was “inactive” and the IC50 (PANC-1) was 1700 nM. It also gave an IC50 (Panc02) of 300 nM and an IC50 at 72 h [6] of over 30 µM.

`CCN(CC)CCCC(C)Nc1cnc(C(=O)Nc2cc(F)cc3cccnc23)cn1` (stereo unspecified) showed a Ki (D(3) dopamine receptor) of 726 nM, a Ki [7] of 2010 nM and a Ki [8] of 743 nM. It also gave a Ki (Histamine H3 receptor) of 1200 nM, a Ki (D(1B) dopamine receptor) of 2830 nM and a Ki [9] of 673 nM. It also gave a Ki [10] of 373 nM, a Ki [11] of over 10 µM and a Ki [12] of 386 nM. The Ki [13] was 165 nM, the half-life at 10 µM [14] was over 60 min and the Ki (Histamine H2 receptor) was 750 nM. It also gave a Ki [15] of 99 nM, a t1/2 [16] of 45.3 min and a Ki [17] of 10 nM. It also gave a Ki [18] of 279 nM, a Ki [19] of 1350 nM and a Ki [20] of 713 nM. For the same molecule, the Ki (D(1A) dopamine receptor) was 5.47 µM and the Ki [21] was 717 nM.
